Experimental data reported in patent US9975888B2, “Aryl linked imidazole and triazole derivatives and methods of use thereof for improving the pharmacokinetics of a drug” (MERCK SHARP & DOHME CORP., priority 2013, dated 2018).

Tests used:
Assay type in all cases: biochemical
CYP2D6 = target: T1, CYP2D6 (Homo sapiens, UniProt P10635); assay: Cocktail assay for CYPs, dextromethorphan O-demethylation (CYP2D6), human liver microsomes; conditions: 5 μM dextromethorphan, 0.1 mg/mL human liver microsomes, 10 min at 37° C.; read-out: CYP IC50 (nM) 2D6
T1 construct: 0.1 mg/mL protein human liver microsomes (BD Gentest); tissue BD Gentest; host or cells: human liver microsomes
Outline: (§1)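 Pooled human liver microsomes (0.1 mg/mL) with a probe cocktail of 10 μM phenacetin, 5 μM dextromethorphan and 2 μM midazolam plus NADPH, pH 7.4, 10 min at 37° C. Each metabolite was quantified by LC/MS/MS against a tolbutamide internal standard. IC50 came from % inhibition at 6 concentrations (e.g. 0.0032–10 μM) by non-linear regression.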

CYP2C9 = target: T2, CYP2C9 (Homo sapiens, UniProt P11712); assay: Cocktail assay for CYPs, diclofenac 4′-hydroxylation (CYP2C9), human liver microsomes; conditions: 5 μM diclofenac, 0.1 mg/mL human liver microsomes, 10 min at 37° C.; read-out: CYP IC50 (nM) 2C9
T2 construct: 0.1 mg/mL protein human liver microsomes (BD Gentest); tissue BD Gentest; host or cells: human liver microsomes
Outline: (§2)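 Pooled human liver microsomes (0.1 mg/mL) with probe cocktail incl. 5 μM diclofenac (CYP2C9) and 30 μM mephenytoin (CYP2C19), 1 mM NADPH, pH 7.4 phosphate buffer, 10 min at 37° C. Metabolites quantified by LC/MS/MS against internal standard; % inhibition versus no-inhibitor control, IC50 by non-linear regression.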

CYP3A4 [1] = target: T3, CYP3A4 (Homo sapiens, UniProt P08684); assay: IC50 vs CYP3A by inhibition of lopinavir metabolism in human liver microsomes; set-up: 0.01 mg/mL protein human liver microsomes (BD Gentest); tissue BD Gentest; host or cells: human liver microsomes; conditions: 1.5 μM lopinavir, 0.01 mg/mL human liver microsomes, 8 min at 37° C.; read-out: CYP IC50 (nM) 3A4 (LPV)
Outline: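 Human liver microsomes (0.01 mg/mL) with 1.5 μM lopinavir, 1 mM NADPH, 3.3 mM MgCl2 in 100 mM potassium phosphate pH 7.4, 8 min at 37 °C, six compound concentrations. Summed M2/M3/M4 hydroxy metabolites quantified by LC/MS/MS against tolbutamide; % inhibition normalised between no-inhibitor and 5 μM ketoconazole controls, IC50 by non-linear regression.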
Target sequence in this assay (P08684 2-503): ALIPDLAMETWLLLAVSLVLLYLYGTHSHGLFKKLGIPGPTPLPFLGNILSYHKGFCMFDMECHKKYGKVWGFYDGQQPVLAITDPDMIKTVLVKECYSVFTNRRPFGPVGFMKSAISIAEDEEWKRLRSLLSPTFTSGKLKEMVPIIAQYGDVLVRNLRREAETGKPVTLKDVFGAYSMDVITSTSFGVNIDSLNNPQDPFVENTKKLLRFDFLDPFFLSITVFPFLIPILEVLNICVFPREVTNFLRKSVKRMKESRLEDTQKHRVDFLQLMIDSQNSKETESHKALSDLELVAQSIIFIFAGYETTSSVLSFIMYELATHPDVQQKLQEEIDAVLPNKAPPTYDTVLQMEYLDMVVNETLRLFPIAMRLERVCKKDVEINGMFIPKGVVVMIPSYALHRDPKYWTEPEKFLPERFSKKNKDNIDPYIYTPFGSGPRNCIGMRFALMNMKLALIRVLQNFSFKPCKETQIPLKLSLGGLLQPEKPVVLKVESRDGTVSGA

CYP3A4 [2] = target: T3, CYP3A4; assay: Cocktail assay for CYPs, midazolam 1′-hydroxylation (CYP3A4), human liver microsomes; set-up: 0.1 mg/mL protein human liver microsomes (BD Gentest); tissue BD Gentest; host or cells: human liver microsomes; conditions: 2 μM midazolam, 0.1 mg/mL human liver microsomes, 10 min at 37° C.; read-out: CYP IC50 (nM) 3A4 (MDZ)
Outline: as §1
Target sequence in this assay (P08684 whole entry): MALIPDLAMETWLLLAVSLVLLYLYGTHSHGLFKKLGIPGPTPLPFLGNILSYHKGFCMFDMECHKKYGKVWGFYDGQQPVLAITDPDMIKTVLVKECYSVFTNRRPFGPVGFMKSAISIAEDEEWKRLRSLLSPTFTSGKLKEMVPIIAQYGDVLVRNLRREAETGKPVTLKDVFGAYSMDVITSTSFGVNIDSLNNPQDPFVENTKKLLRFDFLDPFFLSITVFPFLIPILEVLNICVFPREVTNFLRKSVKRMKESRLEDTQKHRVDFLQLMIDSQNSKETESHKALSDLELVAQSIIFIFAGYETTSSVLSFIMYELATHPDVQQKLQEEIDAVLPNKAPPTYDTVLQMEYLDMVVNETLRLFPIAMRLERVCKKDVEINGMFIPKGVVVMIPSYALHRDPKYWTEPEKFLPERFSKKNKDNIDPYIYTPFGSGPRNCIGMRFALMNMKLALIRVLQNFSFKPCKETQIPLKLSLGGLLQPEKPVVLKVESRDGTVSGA

CYP1A2 = target: T4, CYP1A2 (Homo sapiens, UniProt P05177); assay: Cocktail assay for CYPs, phenacetin O-deethylation (CYP1A2), human liver microsomes; conditions: 10 μM phenacetin, 0.1 mg/mL human liver microsomes, 10 min at 37° C.; read-out: CYP IC50 (nM) 1A2
T4 construct: 0.1 mg/mL protein human liver microsomes (BD Gentest); tissue BD Gentest; host or cells: human liver microsomes
T4 sequence (P05177 1-516): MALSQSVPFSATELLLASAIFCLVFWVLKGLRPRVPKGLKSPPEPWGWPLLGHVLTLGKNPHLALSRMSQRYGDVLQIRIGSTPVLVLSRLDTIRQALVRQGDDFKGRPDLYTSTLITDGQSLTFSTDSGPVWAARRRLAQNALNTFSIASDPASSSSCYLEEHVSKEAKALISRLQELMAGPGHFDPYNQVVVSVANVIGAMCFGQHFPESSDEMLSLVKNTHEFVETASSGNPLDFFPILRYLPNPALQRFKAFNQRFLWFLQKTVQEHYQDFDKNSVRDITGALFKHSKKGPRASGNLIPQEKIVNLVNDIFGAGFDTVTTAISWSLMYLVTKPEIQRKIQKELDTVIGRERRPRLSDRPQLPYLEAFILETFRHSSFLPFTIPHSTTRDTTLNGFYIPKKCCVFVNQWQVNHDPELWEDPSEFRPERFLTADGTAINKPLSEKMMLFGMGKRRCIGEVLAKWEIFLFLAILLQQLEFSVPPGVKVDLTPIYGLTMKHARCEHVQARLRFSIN
Outline: as §1

CYP2C19 = target: T5, CYP2C19 (Homo sapiens, UniProt P33261); assay: Cocktail assay for CYPs, mephenytoin 4′-hydroxylation (CYP2C19), human liver microsomes; conditions: 30 μM mephenytoin, 0.1 mg/mL human liver microsomes, 10 min at 37° C.; read-out: CYP IC50 (nM) 2C19
T5 construct: 0.1 mg/mL protein human liver microsomes (BD Gentest); tissue BD Gentest; host or cells: human liver microsomes
Outline: as §2

T2 sequence (P11712 whole entry): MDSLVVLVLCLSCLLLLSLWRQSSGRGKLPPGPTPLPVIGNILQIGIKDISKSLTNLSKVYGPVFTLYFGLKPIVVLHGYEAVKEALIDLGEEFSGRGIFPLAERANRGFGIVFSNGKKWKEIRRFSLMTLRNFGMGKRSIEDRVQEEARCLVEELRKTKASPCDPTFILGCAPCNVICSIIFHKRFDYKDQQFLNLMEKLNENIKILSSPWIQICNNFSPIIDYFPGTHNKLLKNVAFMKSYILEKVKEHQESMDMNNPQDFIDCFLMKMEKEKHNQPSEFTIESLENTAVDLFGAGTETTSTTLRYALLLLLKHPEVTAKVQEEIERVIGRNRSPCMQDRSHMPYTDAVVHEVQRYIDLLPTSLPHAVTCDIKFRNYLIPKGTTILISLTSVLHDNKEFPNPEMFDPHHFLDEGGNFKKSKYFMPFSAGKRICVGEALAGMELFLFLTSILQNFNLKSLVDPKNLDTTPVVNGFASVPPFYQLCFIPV
T5 sequence (P33261 whole entry): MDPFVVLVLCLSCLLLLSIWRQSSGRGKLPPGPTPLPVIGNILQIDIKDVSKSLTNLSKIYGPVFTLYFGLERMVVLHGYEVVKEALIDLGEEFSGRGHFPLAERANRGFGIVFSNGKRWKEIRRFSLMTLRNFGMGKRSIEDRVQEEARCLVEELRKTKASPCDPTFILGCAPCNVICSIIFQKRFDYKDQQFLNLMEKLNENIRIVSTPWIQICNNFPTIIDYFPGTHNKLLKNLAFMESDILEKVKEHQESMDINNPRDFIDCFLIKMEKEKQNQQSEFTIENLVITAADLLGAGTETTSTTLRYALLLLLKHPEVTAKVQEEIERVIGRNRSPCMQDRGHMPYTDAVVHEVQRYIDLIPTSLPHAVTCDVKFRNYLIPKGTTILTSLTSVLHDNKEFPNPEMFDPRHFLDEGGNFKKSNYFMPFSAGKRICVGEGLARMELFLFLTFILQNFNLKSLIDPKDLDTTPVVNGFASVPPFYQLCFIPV
T1 sequence (P10635 whole entry): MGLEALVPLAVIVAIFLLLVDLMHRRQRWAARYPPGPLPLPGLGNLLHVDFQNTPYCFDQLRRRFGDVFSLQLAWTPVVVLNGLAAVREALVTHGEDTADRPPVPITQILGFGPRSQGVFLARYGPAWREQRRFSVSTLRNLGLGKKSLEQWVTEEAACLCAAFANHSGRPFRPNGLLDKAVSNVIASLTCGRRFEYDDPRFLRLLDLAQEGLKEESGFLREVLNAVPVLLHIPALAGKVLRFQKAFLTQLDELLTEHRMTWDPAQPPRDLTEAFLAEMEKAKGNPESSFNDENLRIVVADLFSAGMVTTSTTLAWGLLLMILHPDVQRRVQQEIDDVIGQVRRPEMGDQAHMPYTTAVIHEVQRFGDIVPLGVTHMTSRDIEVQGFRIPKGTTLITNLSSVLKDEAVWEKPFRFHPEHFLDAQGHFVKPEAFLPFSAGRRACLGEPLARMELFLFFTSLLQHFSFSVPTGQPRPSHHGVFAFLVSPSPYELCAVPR

Row | SMILES | IC50 (CYP2D6) [nM] | IC50 (CYP2C9) [nM] | IC50 (CYP3A4 [1]) [nM] | IC50 (CYP3A4 [2]) [nM] | IC50 (CYP1A2) [nM] | IC50 (CYP2C19) [nM]
1 | CC(=O)Nc1ncc(S(=O)(=O)N2CCCC2c2ccccc2-c2cncn2C2CC2)s1 (stereo not drawn) [Compound 31, N-(5-((2-(2-(1-cyclopropyl-1H-imidazol-5-yl)phenyl)pyrrolidin-1-yl)sulfonyl)thiazol-2-yl) acetamide] | > 10000 | > 10000 | 25.4 | 25.4 | > 10000 | > 10000
2 | O=C(Oc1ccc(Cl)cc1)N1CCCC1c1ccccc1-c1cncn1CCc1ccc(F)cc1 (stereo not drawn) [Compound 36, 4-chlorophenyl 2-(2-(1-(4-fluorophenethyl)-1H-imidazol-5-yl)phenyl) pyrrolidine-1-carboxylate] | 3700 | 1900 | 7 | 19.4 | 7690 | 1680
3 | CC(C)(C)OC(=O)N1CCCC1c1ccccc1-c1cncn1C1CC1 (stereo not drawn) [Compound 37, tert-butyl 2-(2-(1-cyclopropyl-1H-imidazol-5-yl)phenyl) pyrrolidine-1-carboxylate] | > 10000 | > 10000 | 35.2 | 17.8 | > 10000 | 5810
4 | CC(C)(C)OC(=O)N1CCCC1c1ccccc1-c1cncn1CCc1ccc(F)cc1 (stereo not drawn) [Compound 38, tert-butyl 2-(2-(1-(4-fluorophenethyl)-1H-imidazol-5-yl)phenyl) pyrrolidine-1-carboxylate] | 6860 | 1770 | 5.5 | 6.7 | 3350 | 2300
5 | O=C(C1CCOCC1)N1CCCC1c1ccccc1-c1cncn1CCc1ccc(F)cc1 (stereo not drawn) [Compound 41, (2-(2-(1-(4-fluorophenethyl)-1H-imidazol-5-yl)phenyl)pyrrolidin-1-yl)(tetrahydro-2H-pyran-4-yl)methanone] | > 10000 | > 10000 | 11.1 | 10.7 | > 10000 | > 10000
6 | CC(C)NC(=O)N1CCCC1c1cccc(-c2cncn2CCc2ccc(F)cc2)c1 (stereo not drawn) [Compound 50, 2-(3-(1-(4-fluorophenethyl)-1H-imidazol-5-yl)phenyl)-N-isopropyl-pyrrolidine-1-carboxamide] | ≥ 10000 | 4180 | 14.2 | 9.4 | 5750 | 2070
7 | CS(=O)(=O)N1CCCC1c1cccc(-c2cncn2CCc2ccc(F)cc2)c1 (stereo not drawn) [Compound 51, 1-(4-fluorophenethyl)-5-(3-(1-(methylsulfonyl)pyrrolidin-2-yl)phenyl)-1H-imidazole] | 6780 | 4640 | 34.7 | 22.6 | 1160 | 2110
8 | CC(C)OC(=O)N1CCCC1c1cccc(-c2cncn2CCc2ccc(F)cc2)c1 (stereo not drawn) [Compound 56, Isopropyl 2-(3-(1-(4-fluorophenethyl)-1H-imidazol-5-yl)phenyl) pyrrolidine-1-carboxylate] | 4150 | 798 | 11.8 | 18.8 | 3400 | 452

These reach a lower IC50 (CYP2D6). Values come first.

Row | IC50 (CYP2D6) [nM] | IC50 (CYP2C9) [nM] | IC50 (CYP3A4 [1]) [nM] | IC50 (CYP3A4 [2]) [nM] | IC50 (CYP1A2) [nM] | IC50 (CYP2C19) [nM] | SMILES
9 | 3300 | 4560 | 27.4 | 43.4 | > 10000 | > 10000 | Fc1ccc(CCn2cncc2-c2ccccc2C2CCCN2)cc1 (stereo not drawn) [Compound 40, 1-(4-fluorophenethyl)-5-(2-(pyrrolidin-2-yl)phenyl)-1H-imidazole]
10 | 2500 | 2330 | 16.7 | 14.9 | 2080 | 1010 | O=C(C1CC1)N1CCCC1c1cccc(-c2cncn2CCc2ccc(F)cc2)c1 (stereo not drawn) [Compound 47, cyclopropyl(2-(3-(1-(4-fluorophenethyl)-1H-imidazol-5-yl)phenyl)pyrrolidin-1-yl)methanone]
11 | 2460 | 1970 | 6 | 5.76 | 6500 | 249 | O=C(c1ccc(N2CCOCC2)nc1)N1CCCC1c1cccc(-c2cncn2CCc2ccc(F)cc2)c1 (stereo not drawn) [Compound 52, (2-(3-(1-(4-fluorophenethyl)-1H-imidazol-5-yl)phenyl)pyrrolidin-1-yl) (6-morpholino-pyridin-3-yl) methanone]
12 | 1150 | 422 | 3.2 | 13.9 | 1240 | 109 | O=S(=O)(c1cnc(Cl)c(Br)c1)N1CCCC1c1cccc(-c2cncn2CCc2ccc(F)cc2)c1 (stereo not drawn) [Compound 54, 3-Bromo-2-chloro-5-((2-(3-(1-(4-fluorophenethyl)-1H-imidazol-5-yl)phenyl)pyrrolidin-1-yl)sulfonyl) pyridine]
13 | 2170 | 1350 | 1.9 | 4.5 | > 10000 | 2830 | CN1CCN(c2ncc(S(=O)(=O)N3CCc4c(cccc4-c4cncn4CCc4ccc(F)cc4)C3)s2)CC1 [Compound 58, 5-((5-(1-(4-fluorophenethyl)-1H-imidazol-5-yl)-3,4-dihydroisoquinolin-2(1H)-yl)sulfonyl)-2-(4-methylpiperazin-1-yl)thiazole]
14 | 1980 | 4530 | 1.5 | 4 | > 10000 | 5610 | CN1CCN(c2ccc(S(=O)(=O)N3CCc4c(cccc4-c4cncn4CCc4ccc(F)cc4)C3)cn2)CC1 [Compound 59, 5-(1-(4-fluorophenethyl)-1H-imidazol-5-yl)-2-((6-(4-methylpiperazin-1-yl)pyridin-3-yl)sulfonyl)-1,2,3,4-tetrahydroisoquinoline]
15 | 2210 | 1350 | 1.8 | 6.2 | > 10000 | 53 | O=S(=O)(c1ccc(N2CCOCC2)nc1)N1CCc2c(cccc2-c2cncn2CCc2ccc(F)cc2)C1 [Compound 60, 4-(5-((5-(1-(4-fluorophenethyl)-1H-imidazol-5-yl)-3,4-dihydroisoquinolin-2(1H)-yl)sulfonyl)pyridin-2-yl) morpholine]
16 | 3250 | 1050 | 1.4 | 7.6 | 4620 | 65 | CN(C)c1ccc(S(=O)(=O)N2CCc3c(cccc3-c3cncn3CCc3ccc(F)cc3)C2)cn1 [Compound 61, 5-((5-(1-(4-fluorophenethyl)-1H-imidazol-5-yl)-3,4-dihydroisoquinolin-2(1H)-yl)sulfonyl)-N,N-dimethyl-pyridin-2-amine]
17 | 2720 | 575 | 1.3 | 5.2 | > 10000 | 238 | COCCN(C)c1ccc(S(=O)(=O)N2CCc3c(cccc3-c3cncn3CCc3ccc(F)cc3)C2)cn1 [Compound 62, 5-((5-(1-(4-fluorophenethyl)-1H-imidazol-5-yl)-3,4-dihydroisoquinolin-2(1H)-yl)sulfonyl)-N-(2-methoxy-ethyl)-N-methylpyridin-2-amine]
